# Data as given in ChEMBL document CHEMBL5727755, “Boronic acid derivatives” (2020).
# Assay: Determination of LMP7 Activity: Measurement of LMP7 inhibition is performed in 384 well format based on fluorescence intensity assay.Purified human immuno proteasome (0.25 nM) and serial diluted compounds in DMSO (range of concentrations from 30 μM to 15 pM) or controls are incubated for 20 minutes or 120 minutes (long incubation) at 25° C. in assay buffer containing 50 mM Tris pH 7.4, 0.03% SDS, 1 mM EDTA and 1% DMSO. The reaction is initiated by the addition of the fluorogenic peptide substrate, Suc-LLVY-AMC (Bachem 1-1395), at a concentration of 40 μM. After 60 minutes of incubation at 37° C., fluorescence intensity is measured at λex=350 nm and λem=450 nm with a fluorescence reader (Perkin Elmer Envision reader or equivalent).
row,SMILES,IC50
1,C=CS(=O)(=O)N(C)CC(=O)N[C@@H](Cc1ccc(C)c(C)c1)B(O)O,in the range around 275 nM
2,CC#CC(=O)N(CCC)CC(=O)N[C@@H](Cc1ccc(C)cc1C)B(O)O,< 50 nM
